{
  "source": "patent US10428051B2",
  "about": "(priority 2015, dated 2019)",
  "biological_target": "human σ1 receptor (Homo sapiens, UniProt Q99720)",
  "sequence (Q99720 whole entry)": "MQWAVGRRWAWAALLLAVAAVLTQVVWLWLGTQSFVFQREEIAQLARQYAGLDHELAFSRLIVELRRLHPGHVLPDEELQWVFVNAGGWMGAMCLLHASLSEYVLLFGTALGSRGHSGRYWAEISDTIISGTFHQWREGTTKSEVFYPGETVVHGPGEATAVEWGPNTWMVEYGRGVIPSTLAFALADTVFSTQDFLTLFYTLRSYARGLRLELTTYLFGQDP",
  "assay": "biochemical",
  "format": "binding",
  "set-up": "μ and σ1 dual (binding to the σ1 receptor and the μ-opioid receptor expressed as Ki): key to the marks not given beside the values",
  "key": {"[1]": {"settings": "combined class for both Ki-σ1 (assay A1) and Ki-μ (assay A2), human receptors, radioligand binding, read-out: μ and σ1 dual (binding to the σ1 receptor and the μ-opioid receptor expressed as Ki)"}},
  "note": "Where two headings read alike, the source gives them in different places.",
  "data": [
    {"compound": "CCC(=O)N(CC1(N2CCN(Cc3ccc(OC)nc3)CC2)CCOCC1)c1ccccc1", "note": "[Example 109, N-((4-(4-((6-methoxypyridin-3-yl)methyl)piperazin-1-yl)tetrahydro-2H-pyran-4-yl)methyl)-N-phenylpropionamide]", "values": [
      {"measurement": "Ki", "value": "< 0.5", "unit": "µM"}
    ]},
    {"compound": "CCC(=O)N(CC1(N2CCN(Cc3ccccc3)CC2)CC1)c1ccc(C(F)(F)F)cn1", "note": "[Example 94, N-((1-(4-benzylpiperazin-1-yl)cyclopropyl)methyl)-N-(5-(trifluoromethyl)pyridin-2-yl)propionamide]", "values": [
      {"measurement": "μ and σ1 dual (binding to the σ1 receptor and the μ-opioid receptor expressed as Ki)", "value": "++"}
    ]},
    {"compound": "CCOCCN1CCN(C2(CN(C(=O)CC)c3cccc(C(F)(F)F)n3)CCOC3(CCCC3)C2)CC1", "note": "(stereo not shown) [Example 176, N-((9-(4-(2-ethoxyethyl)piperazin-1-yl)-6-oxaspiro[4.5]decan-9-yl)methyl)-N-(6-(trifluoromethyl)pyridin-2-yl)propionamide]", "values": [
      {"measurement": "Ki", "value": "< 0.5", "unit": "µM"}
    ]},
    {"compound": "CCC(=O)N(CC1(N2CCN(Cc3ccccc3)CC2)CC1)c1ccc(F)cn1", "note": "[Example 33, N-((1-(4-benzylpiperazin-1-yl)cyclopropyl)methyl)-N-(5-fluoropyridin-2-yl)propionamide]", "values": [
      {"measurement": "Ki", "value": "< 0.5", "unit": "µM"}
    ]},
    {"compound": "CCC(=O)N(CC1(N2CCN(Cc3ccccc3F)CC2)CC1)c1ccccc1", "note": "[Example 118, N-((1-(4-(2-fluorobenzyl)piperazin-1-yl)cyclopropyl)methyl)-N-phenylpropionamide]", "values": [
      {"measurement": "Ki", "value": "< 0.1", "unit": "µM"}
    ]},
    {"compound": "CCC(=O)N(CC1(N2CCN(Cc3ccccc3)CC2)CCOCC1)c1ncccc1C#N", "note": "[Example 58, N-((4-(4-benzylpiperazin-1-yl)tetrahydro-2H-pyran-4-yl)methyl)-N-(3-cyanopyridin-2-yl)propionamide]", "values": [
      {"measurement": "μ and σ1 dual (binding to the σ1 receptor and the μ-opioid receptor expressed as Ki)", "value": "++"}
    ]},
    {"compound": "CCC(=O)N(CC1(N2CCN(Cc3ccccc3)CC2)CCOCC1)c1ccccc1F", "note": "[Example 4, N-((4-(4-benzylpiperazin-1-yl)tetrahydro-2H-pyran-4-yl)methyl)-N-(2-fluorophenyl)propionamide]", "values": [
      {"measurement": "Ki", "value": "< 0.1", "unit": "µM"}
    ]},
    {"compound": "CCC(=O)N(CC1(N2CCN(Cc3ccccc3)CC2)CCOC(C)(C)C1)c1cccc(C#N)n1", "note": "(stereo not shown) [Example 65, N-((4-(4-benzylpiperazin-1-yl)-2,2-dimethyltetrahydro-2H-pyran-4-yl)methyl)-N-(6-cyanopyridin-2-yl)propionamide]", "values": [
      {"measurement": "Ki", "value": "< 0.5", "unit": "µM"}
    ]},
    {"compound": "CCC(=O)N(CC1(N2CCN(Cc3ccccc3)CC2)CC1)c1cccc(C#N)n1", "note": "[Example 97, N-((1-(4-benzylpiperazin-1-yl)cyclopropyl)methyl)-N-(6-cyanopyridin-2-yl)propionamide]", "values": [
      {"measurement": "Ki", "value": "< 0.5", "unit": "µM"}
    ]},
    {"compound": "CCC(=O)N(CC1(N2CCN(CCc3ccncc3)CC2)CCOCC1)c1cccc(C(F)(F)F)n1", "note": "[Example 206, N-((4-(4-(2-(pyridin-4-yl)ethyl)piperazin-1-yl)tetrahydro-2H-pyran-4-yl)methyl)-N-(6-(trifluoromethyl)pyridin-2-yl)propionamide]", "values": [
      {"measurement": "Ki", "value": "< 0.5", "unit": "µM"}
    ]},
    {"compound": "CCC(=O)N(CC1(N2CCN(Cc3ccccc3)CC2)CCOCC1)c1cccc(C#N)n1", "note": "[Example 84, N-((4-(4-benzylpiperazin-1-yl)tetrahydro-2H-pyran-4-yl)methyl)-N-(6-cyanopyridin-2-yl)propionamide]", "values": [
      {"measurement": "Ki", "value": "< 0.5", "unit": "µM"}
    ]},
    {"compound": "CCC(=O)N(CC1(N2CCN(C(C)CC)CC2)CCOCC1)c1ccccn1", "note": "(stereo not shown) [Example 154, N-((4-(4-sec-butylpiperazin-1-yl)tetrahydro-2H-pyran-4-yl)methyl)-N-(pyridin-2-yl)propionamide]", "values": [
      {"measurement": "Ki", "value": "> 0.5", "unit": "µM"}
    ]},
    {"compound": "CCC(=O)N(CC1(N2CCN(Cc3ccccc3)CC2)CC1)c1cccnc1C(F)(F)F", "note": "[Example 76, N-((1-(4-benzylpiperazin-1-yl)cyclopropyl)methyl)-N-(2-(trifluoromethyl)pyridin-3-yl)propionamide]", "values": [
      {"measurement": "Ki", "value": "< 0.5", "unit": "µM"}
    ]},
    {"compound": "CCC(=O)N(CC1(N2CCN(Cc3ccccc3)CC2)CCOCC1)c1cncc(C(F)(F)F)c1", "note": "[Example 9, N-((4-(4-benzylpiperazin-1-yl)tetrahydro-2H-pyran-4-yl)methyl)-N-(5-(trifluoromethyl)pyridin-3-yl)propionamide]", "values": [
      {"measurement": "μ and σ1 dual (binding to the σ1 receptor and the μ-opioid receptor expressed as Ki)", "value": "++"}
    ]},
    {"compound": "CCC(=O)N(CC(C)(C)N1CCN(CC(C)C)CC1)c1ncccc1F", "note": "[Example 74, N-(3-fluoropyridin-2-yl)-N-(2-(4-isobutylpiperazin-1-yl)-2-methylpropyl)propionamide]", "values": [
      {"measurement": "μ and σ1 dual (binding to the σ1 receptor and the μ-opioid receptor expressed as Ki)", "value": "++"}
    ]},
    {"compound": "CCC(=O)N(CC1(C2CCN(CC(C)C)CC2)CCOCC1)c1cccc(C(F)(F)F)n1", "note": "[Example 178, N-((4-(1-isobutylpiperidin-4-yl)tetrahydro-2H-pyran-4-yl)methyl)-N-(6-(trifluoromethyl)pyridin-2-yl)propionamide]", "values": [
      {"measurement": "μ and σ1 dual (binding to the σ1 receptor and the μ-opioid receptor expressed as Ki)", "value": "++"}
    ]},
    {"compound": "CCC(=O)N(CC1(N2CCN(CCOCC(C)(C)F)CC2)CCOCC1)c1cccc(C(F)(F)F)n1", "note": "[Example 189, N-((4-(4-(2-(2-fluoro-2-methylpropoxy)ethyl)piperazin-1-yl)tetrahydro-2H-pyran-4-yl)methyl)-N-(6-(trifluoromethyl)pyridin-2-yl)propionamide]", "values": [
      {"measurement": "Ki", "value": "< 0.1", "unit": "µM"}
    ]},
    {"compound": "CCC(=O)N(CC1(N2CCN(CCN3CCOCC3)CC2)CCOCC1)c1cccc(C(F)(F)F)n1", "note": "[Example 184, N-((4-(4-(2-morpholinoethyl)piperazin-1-yl)tetrahydro-2H-pyran-4-yl)methyl)-N-(6-(trifluoromethyl)pyridin-2-yl)propionamide]", "values": [
      {"measurement": "Ki", "value": "> 0.5", "unit": "µM"}
    ]},
    {"compound": "CCC(=O)N(CC1(N2CCN(Cc3ccccc3)CC2)CCOCC1)c1ncccc1F", "note": "[Example 82, N-((4-(4-benzylpiperazin-1-yl)tetrahydro-2H-pyran-4-yl)methyl)-N-(3-fluoropyridin-2-yl)propionamide]", "values": [
      {"measurement": "Ki", "value": "< 0.1", "unit": "µM"}
    ]},
    {"compound": "CCC(=O)N(CC1(N2CCN(CCC(C)C)CC2)CCOCC1)c1cccc(C(F)(F)F)n1", "note": "[Example 137, N-((4-(4-isopentylpiperazin-1-yl)tetrahydro-2H-pyran-4-yl)methyl)-N-(6-(trifluoromethyl)pyridin-2-yl)propionamide]", "values": [
      {"measurement": "Ki", "value": "< 0.1", "unit": "µM"}
    ]},
    {"compound": "CCC(=O)N(CC1(N2CCN(Cc3ccc(F)c(F)c3)CC2)CC1)c1ccccc1", "note": "[Example 117, N-((1-(4-(3,4-difluorobenzyl)piperazin-1-yl)cyclopropyl)methyl)-N-phenylpropionamide]", "values": [
      {"measurement": "Ki", "value": "< 0.1", "unit": "µM"}
    ]},
    {"compound": "CCOc1ccc(N(CC2(N3CCN(Cc4ccccc4)CC3)CCN(C)CC2)C(=O)CC)cc1", "note": "[Example 24, N-((4-(4-benzylpiperazin-1-yl)-1-methylpiperidin-4-yl)methyl)-N-(4-ethoxyphenyl)propionamide]", "values": [
      {"measurement": "Ki", "setting": "[1]", "value": "> 0.5", "unit": "µM"}
    ]},
    {"compound": "CN1CCC(CN(C(=O)c2nccs2)c2ccccc2)(N2CCN(Cc3ccccc3)CC2)CC1", "note": "[Example 41, N-((4-(4-benzylpiperazin-1-yl)-1-methylpiperidin-4-yl)methyl)-N-phenylthiazole-2-carboxamide]", "values": [
      {"measurement": "Ki", "setting": "[1]", "value": "> 0.5", "unit": "µM"}
    ]},
    {"compound": "CCC(=O)N(CC1(N2CCN(CCC(C)C)CC2)CCOC(C)(C)C1)c1cccc(C(F)(F)F)n1", "note": "(stereo not shown) [Example 159, N-((4-(4-isopentylpiperazin-1-yl)-2,2-dimethyltetrahydro-2H-pyran-4-yl)methyl)-N-(6-(trifluoromethyl)pyridin-2-yl)propionamide]", "values": [
      {"measurement": "Ki", "value": "< 0.1", "unit": "µM"}
    ]},
    {"compound": "CCC(=O)N(CC(C)(C)N1CCN(CCOC(C)C)CC1)c1ncccc1F", "note": "[Example 73, N-(3-fluoropyridin-2-yl)-N-(2-(4-(2-isopropoxyethyl)piperazin-1-yl)-2-methylpropyl)propionamide]", "values": [
      {"measurement": "μ and σ1 dual (binding to the σ1 receptor and the μ-opioid receptor expressed as Ki)", "value": "++"}
    ]}
  ]
}
